Data taken from US5985926A, “Method for inhibiting intracellular viral replication” (Cell Therapeutics, Inc., priority 1997, dated 1999).
Entries after “also recorded” stand apart in the source; their conditions may differ.

Experiments:
[1] = system: LPAAT (lysophosphatidate acyl-CoA acyltransferase); assay: LPAAT inhibition in vitro; format: biochemical, mammalian; details: Lineweaver-Burke graph
From the text: The mammalian cell membrane associated enzyme lysophosphatidate acyl-CoA acyltransferase (LPAAT) catalyzes the transfer of acyl CoA from lysophosphatidic acid (lyso-PA) to phosphatidic acid (PA) species. Certain PA species function as lipid intermediates in cell activation and function directly as intracellular signaling molecules. PA is subsequently dephosphorylated to 1,2-sn diacylglycerol (DAG) via phosphatidate phosphohydrolase (PAH). The compounds that inhibit viral replication, gene expression and viral antigen release in infected cells also have decreased amounts of intracellular PA species that are formed in response to inflammatory cellular activation. […] Therefore, if PA derived from lyso-PA is an important intracellular signaling intermediate for TNF or IL-1 induced viral replication in virally-infectedcells, then inhibitors of PA formation will act to prevent progression of viral diseases by blocking cell signaling to stimulate virion formation.

[2] = system: HIV-LTR promoter (tat transactivation) in 293-EBNA cells; assay: AP reporter gene expression from HIV-LTR promoter with tat expression vector, 293-EBNA cells; format: cell-based, HIV; human cells
In short: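 293-EBNA cells were transiently co-transfected with an HIV-LTR-driven secreted placental alkaline phosphatase reporter and a tat(1–72) expression plasmid. At 24 h, the medium was switched to serum-free AIM V before compounds were added at various concentrations. Secreted AP activity was read colorimetrically at 405 nm 19–24 h later.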

[3] = system: HIV-1 in U1 cells (constitutive expression); assay: Constitutive HIV-1 p24 antigen expression in chronically infected U1 cells; format: cell-based, HIV-1; human cells; details: U1 cells plated at high density; in words
Description: (§1) Another assay examined the effect of compounds on chronically HIV-1 infected U1 cells. A relatively high density of U1 cells at 10^4 cells/well were incubated in the absence or presence of compounds for 4 days. HIV-1 p24 antigen expression in the culture media was measured by using a ELISA kit (Abbott). Alternatively, U1 cells were plated at a relatively low density of 2×10^3 cell/well plus or minus TNF at 20 pg/ml and plus or minus compounds. The expression of HIV-1 p24 antigen in culture media was measured by ELISA four days later.
(§2) Stable cell lines 293tar, 293tat and 293tat2 were generated by transfections using conditions described in (Tate et al., FASEB J. 4:227-231, 1990) with the plasmid pHIV.AP alone or along with either pHIV.tat or pSV2tat72, respectively. The assay of HIV-1 p24 antigen expression in the chronically HIV-1-infected promonocytic line U1 after 4 days and in acutely infected peripheral blood lymphocytes (PBL) after 7 days were described (Peterson et al., J. Clin. Invest. 89:574-580, 1992, and Brighty et al., Proc Natl. Acad. Sci. USA 88:7802-7805, 1991).
(§3) This example illustrates that CT2576 inhibited both constitutive and cytokine-induced HIV expression in a chronically-infected U1 cell line. A chronically HIV-1 infected human promonocyte cell line, U1 (Poli et al., J. Exp. Med. 172:151-158, 1990), was used as a model to see if the inhibitory effect of CT2576 on HIV-LTR driven reporter gene expression could be extended to block HIV replication per se in infected cells. TNF-α and IL-6 have been reported to upregulate the expression of HIV-1 in U1 cells (Poli et al., Proc Natl. Acad. Sci. USA 91:108-112, 1994). U1 cells were plated onto 24-well microtiter plates to study the dose-response effect of CT2576 on the constitutive (10^4 cells/well), TNF-α or IL-6 mediated (2×10^3 cells/well) expression of HIV-1. CT2576 was capable of inhibiting the constitutive, the TNF-α mediated, as well as the IL-6 mediated expression of HIV in U1 cells with an IC50 value of less than 1 μM (FIG. 17).

[4] = system: HIV-1 in U1 cells (TNF-α mediated expression); assay: TNF-α-mediated HIV-1 p24 antigen expression in chronically infected U1 cells; format: cell-based, HIV-1; human cells; details: U1 cells; in words
Description: as §1, §2, §3

[5] = system: HIV in infected monocytic cells; assay: HIV replication, gene expression and p24 release in infected monocytic cells stimulated by TNF; format: cell-based; details: TNF activation
Description: as §1

[6] = system: HIV-1 strain JR-CSF in PBL; assay: HIV-1 p24 antigen expression in acutely infected peripheral blood lymphocytes (PBL); format: cell-based, HIV-1; human cells; details: Human immunodeficiency virus 1, Lymphocyte, clinical isolate
Description: FIG. 17 illustrates a dose response curves of CT2576 on constitutive, TNF-α, and IL-6-mediated expression of HIV-1 in a chronically infected U1 cell line (left Y-axis) and of CT3537 on HIV expression in PBL acutely infected with the JR-CSF primary isolate (right Y-axis). U1 cells were incubated for four days after the addition of CT2576 with or without TNF-α (20 pg/ml) or IL-6 (1 ng/ml). PBL were inoculated with HIV at 10 ng virus/10^6 cells/well and incubated with various concentrations of CT3537 for 7 days. Each data point represents the average expression levels of HIV-1 p24-antigen in the cell supernatants measured by ELISA from triplicate samples with error bar indicating the SD.
as §2, with “1991). […]” for “1991).”

[7] = system: HIV-LTR promoter / tat protein; details: through interaction with the tat protein; cited from earlier work
[8] = system: CMV promoter in 293-EBNA cells; assay: AP reporter gene expression from CMV promoter, 293-EBNA cells stably transfected with pCMV.AP; format: cell-based, human cytomegalovirus; human cells; details: Homo sapiens, 293-EBNA; FIG. 8; read-out: concentration inhibiting AP activity by 50% (CMV assay)
In short: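 293-EBNA cells carrying episomal pCMV.AP, expressing secreted placental alkaline phosphatase from the CMV enhancer/promoter, treated with various compound concentrations. Reporter expression read as change in A405 of conditioned medium with substrate such as ortho-nitrophenol phosphate.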

[9] = Viability of 293-EBNA cells, Alamar Blue; format: cell-based, human; details: human, 293-ebna cells; read-out: LD50 (CMV assay, FIG. 9)
In short: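 Viability read with Alamar Blue, a vital dye reduced by mitochondrial dehydrogenases to a soluble product. Signal quantified as the absorbance difference between A570 and A600.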

[10] = Viability of 293-EBNA cells (dye not stated); details: human
HIV infection = details: cited from earlier work
[11] = system: HIV in chronically infected cell lines; details: cited from earlier work

C[C@@H](O)CCCCn1c(=O)c2c(ncn2C)n(C)c1=O [CT1501R, R-1-(5-hydroxyhexyl)-3,7-dimethylxanthine]
mode of LPAAT inhibition [1]: competitive inhibition
inhibition of AP expression (HIV-LTR promoter) ([2]; 293-EBNA cells, HIV promoter, in words): No appreciable inhibition of AP expression; also recorded: did not affect AP activity
suppression of constitutive HIV-1 expression (p24) [3]: suppressed constitutive HIV-1 expression
suppression of TNFα-mediated HIV-1 expression (p24) [4]: suppressed HIV-1 expression
antiviral activity in TNF-stimulated infected monocytic cells [5]: inhibiting HIV replication, gene expression and p24 release
effect on cell viability / cytotoxicity (293-EBNA cells): did not affect AP activity and cell viability significantly

CCCCCCCCN(CC(CCCCCCCCCn1c(=O)c2c(ncn2C)n(C)c1=O)OC(C)=O)C(C)=O (stereo not shown) [CT3537, 1-[11-(N-octylacetamido)-10-acetoxyundecyl]-3,7-dimethylxanthine]
IC50 [6]: < 1 µM

CNC1=Nc2ccc(Cl)cc2C(c2ccc[nH]2)=NC1 [Ro 24-7429]
block of HIV-LTR promoter transcription [7]: blocks HIV-LTR promoter transcription

CCCCCCCCNCC(O)CCCCCCCCCn1c(=O)c2[nH]cnc2n(C)c1=O (stereo not shown) [CT1416, N-(11-octylamino-10-hydroxyundecyl)-3-methylxanthine]
IC50 ([2]; Homo sapiens, 293-EBNA, read-out: concentration inhibiting AP expression by 50%): 1 to 4 µM
IC50 [8]: 2 to 6 µM
CC50 [9]: ~5 µM
effect on cell viability / cytotoxicity (293-EBNA cells): some cytotoxicity
CC50 [10]: ~5 µM

Cc1cn([C@H]2C[C@H](N=[N+]=[N-])[C@@H](CO)O2)c(=O)[nH]c1=O [AZT]
progression of AIDS disease (HIV infection; asymptomatic patients, early stage HIV infection): no delay in the progression of AIDS disease
CD4+ T cell number (HIV infection; treatment versus placebo group): consistently higher number of CD4^+ T cells
activity on HIV replication in chronically infected cell lines [11]: not to be active
